Results from patent US20110217300A1, “Quinazolinone Compounds and Methods of Use Thereof” (priority 2007, published 2011).
Where two headings read alike, the source gives them in different places.

How the values were obtained:
Experiment in all cases: MTS cell viability assay
[1] = test system: NCI-H460; format: cell-based, human
Summary of the method: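 GI50 values come from tetrazolium (MTS) absorbance at 490 nm, measured within two hours of SDS addition. Cells had been treated with compound for 72 hours in supplemented DMEM, then given […] PMS 7.67 mg/L for 4 hours.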

[2] = test system: HEP-G2; format: cell-based; details: Homo sapiens, HepG2, Hepatocellular carcinoma
Procedure: (§1) Cell viability was determined by measuring the activity of dehydrogenase enzymes in metabolically active cells using a tetrazolium compound, MTS. The assay was performed as described in Promega Technical Bulletin No. 169 (CellTiter 96 Aqueous Non-Radioactive Cell Proliferation Assay). Two human cancer cell lines were assayed (see, Table 1). Cells were maintained at 37° C. and 5% CO2 in DMEM media (4.5 g/L glucose) supplemented with 10% heat-inactivated FBS, 10 mM L-glutamine, and 10 mM Hepes pH 7.5. Briefly, cells were seeded in 96-well plates as set forth in Table 1 and incubated for 16-24 hours. Candidate compounds were serially diluted in DMSO, further diluted in cell culture media, and then added to cells (final DMSO concentration of 0.33%). Cells were incubated in the presence of candidate compound for 72 hours. MTS stock solution (MTS 2 gm/L, PMS […] in PBS) was added to the cells (final concentration MTS […] and PMS 7.67 mg/L) and incubated for 4 hours. SDS was added to a final concentration of 1.4% and absorbance at 490 nm was measured within two hours using a plate reader. […] GI50 values were given in Table 2 for the compounds listed. The Compound Numbers in Table 2 correspond to the numbers listed parenthetically in the Example titles. Where multiple measurements were made by different technicians, both values are given.
(§2) Cell viability was determined for N-(3-amino-propyl)-3-chloro-N—[(R)-1-(7-chloro-4-oxo-3-phenylamino-3,4-dihydro-quinazolin-2-yl)-but-3-ynyl]-2-fluoro-benzamide (compound I of Table 2). The cell viability assay of Example 105 was used. GI50 was determined using a variety of cell lines. Cells were plated at 100-5000 cells per well. At least 2 replicates were performed. Where multiple measurements were made by different technicians, both values are given.

[3] = test system: A427; format: cell-based; details: Homo sapiens, A-427, Lung Carcinoma
Procedure: as §1, §2

[4] = test system: SK-MEL-28; format: cell-based; details: Malignant melanoma
Procedure: as §1, §2

[5] = test system: U937; format: cell-based; details: Homo sapiens, U-937, Monocyte Histocytic Lymphoma
Procedure: as §1, §2

[6] = test system: RT-4; format: cell-based; details: Human urinary bladder cell carcinoma
Procedure: as §1, §2

[7] = test system: ASPC-1; format: cell-based; details: Homo sapiens, ASPC1, pancreas
Procedure: as §1, §2

[8] = test system: MIA-PaCa2; format: cell-based; details: Homo sapiens, MIA PaCa-2, Pancreas
Procedure: as §1, §2

[9] = test system: COLO-205; format: cell-based; details: Homo sapiens, colon
Procedure: as §1, §2

[10] = test system: BDCM; format: cell-based; details: Lymphoblast
Procedure: as §1, §2

[11] = test system: KG-1a; format: cell-based; details: Homo sapiens, AML
Procedure: as §1, §2

[12] = test system: NCI-H358; format: cell-based; details: Homo sapiens, Non-small cell lung cancer, brancioalveolar carcinoma
Procedure: as §1, §2

[13] = test system: 786-O; format: cell-based; details: Homo sapiens, 786-0, kidney
Procedure: as §1, §2

[14] = test system: NCI-H441; format: cell-based; details: Lung Papillary Adenocarcinoma
Procedure: as §1, §2

[15] = test system: CCS292; format: cell-based; details: Clear cell Sarcoma
Procedure: as §1, §2

[16] = test system: K562; format: cell-based; details: CML
Procedure: as §1, §2

[17] = test system: NCI-H526; format: cell-based; details: Homo sapiens, Lung carcinoma, variant small cell lung cancer
Procedure: as §1, §2

[18] = test system: NTERA-2 c1. D1; format: cell-based; details: NTERA2, Testis pluripotent embryonal carcinoma
Procedure: as §1, §2

[19] = test system: SK-HEP-1; format: cell-based; details: Homo sapiens, SK-HEP1, Liver adenocarcinoma
Procedure: as §1, §2

[20] = test system: PANC-1; format: cell-based; details: Homo sapiens, Pancreas epithelioid carcinoma
Procedure: as §1, §2

[21] = test system: SNU475; format: cell-based; details: Homo sapiens, SNU-475, liver
Procedure: as §1, §2

[22] = test system: CFPPAC-1; format: cell-based; details: Pancreasductal adenocarcinoma, cystic fibrosis
Procedure: as §1, §2

[23] = test system: NCI-H520; format: cell-based; details: Homo sapiens, Squamous cell lung carcinoma
Procedure: as §1, §2

[24] = test system: HEC1A; format: cell-based; details: Homo sapiens, HEC-1-A, endometrial
Procedure: as §1, §2

[25] = test system: WIDR; format: cell-based; details: Homo sapiens, Colorectal adenocarcinoma
Procedure: as §1, §2

[26] = test system: RKO; format: cell-based; details: Homo sapiens, Colon Carcinoma
Procedure: as §1, §2

[27] = test system: MCF-7; format: cell-based; details: breast
Procedure: as §1, §2

[28] = test system: HPAF-II; format: cell-based; details: Homo sapiens, pancreas
Procedure: as §1, §2

[29] = test system: SW780; format: cell-based; details: Homo sapiens, bladder
Procedure: as §1, §2

[30] = test system: SW620; format: cell-based; details: Homo sapiens, SW-620, Colorectal adenocarcinoma
Procedure: as §1, §2

[31] = test system: CALU-6; format: cell-based; details: Homo sapiens, lung
Procedure: as §1, §2

## C#CC[C@H](c1nc2cc(Cl)ccc2c(=O)n1Nc1ccccc1)N(CCCN)C(=O)c1cccc(Cl)c1F [Compound 1, N-(3-Amino-propyl)-3-chloro-N—[(R)-1-(7-chloro-4-oxo-3-phenylamino-3,4-dihydro-quinazolin-2-yl)-but-3-ynyl]-2-fluoro-benzamide]
[1]; Homo sapiens, NCI-H460, 72 h, read-out: MTS NCI H460 GI50, NCI-H460 non small cell lung, 72 hours
  GI50: 360 nM
[1]; Homo sapiens, NCI-H460, read-out: Average GI50, NCI-H460, Large cell lung carcinoma (Table 3)
  GI50: 1100 nM
[1]; read-out: Average GI50, NCI-H460, Large cell lung carcinoma (Table 3), listed as I
  GI50: 1050 nM
[2]
  GI50: 3.84 µM
[3]
  GI50: 64 nM
[4]; Homo sapiens, SK-MEL-28, SK-MEL-28
  GI50: 2160 nM
[4]; SK-MEL-28, listed as I
  GI50: 3130 nM
[5]
  GI50: 155 nM
[6]
  GI50: 368 nM
[7]
  GI50: 549 nM
[8]
  GI50: 259 nM
[9]
  GI50: 106 nM
[10]
  GI50: 207 nM
[11]
  GI50: 3.2 µM
[12]
  GI50: 190 nM
[13]
  GI50: 1740 nM
[14]; Homo sapiens, NCI-H441, NCI-H441
  GI50: 3340 nM
[14]; NCI-H441, listed as I
  GI50: 2250 nM
[15]
  GI50: 833 nM
[16]; Homo sapiens, K562, K562
  GI50: 133 nM
[16]; K562, listed as I
  GI50: 184 nM
[17]
  GI50: 125 nM
[18]
  GI50: 63 nM
[19]
  GI50: 319 nM
[20]
  GI50: 1170 nM
[21]
  GI50: 2350 nM
[22]
  GI50: 2080 nM
[23]
  GI50: 139 nM
[24]
  GI50: 316 nM
[25]
  GI50: 783 nM
[26]
  GI50: 110 nM
[27]; Homo sapiens, MCF7, MCF-7
  GI50: 5.08 µM
[27]; MCF-7, listed as I
  GI50: 4.83 µM
[28]
  GI50: 2060 nM
[29]
  GI50: 220 nM
[30]
  GI50: 317 nM
[31]
  GI50: 105 nM
